Source: US20130096067A1, “DROSOPHILA TUMOR STEM CELL MODEL AND USES THEREOF” (priority 2011, published 2013)
Values joined by “and” are separate entries in the source; they are usually repeats but may differ in a detail not shown here. Identical values can stand only once.

System: Raf-1^gof intestinal tumors
Settings: for Log2 (fold) (luciferase activity, log2 of the fold difference relative to DMSO controls) / Fold (luciferase activity, fold difference relative to DMSO controls): screen of 480 ICCB compounds in vials, compounds fed to flies with one-day old Raf-1^gof tumors, esg-Gal4 luciferase; for Log2 (fold) (luciferase activity, log2 of the fold difference relative to DMSO controls) / Fold (luciferase activity, fold difference relative to DMSO controls) / Log2 (fold) of luciferase activity relative to DMSO controls / Fold (luciferase activity relative to DMSO controls): assessed three days later; for Fold (luciferase activity, fold difference relative to DMSO controls) / Fold (luciferase activity relative to DMSO controls): averaged from multiple wells; for Log2 (fold) of luciferase activity relative to DMSO controls / Fold (luciferase activity relative to DMSO controls): ICCB compounds fed in vials to flies with one-day old Raf-1^gof tumors
Throughout, for Fold (luciferase activity relative to DMSO controls): test concentration or dose not given here.
Throughout, for Fold (luciferase activity, fold difference relative to DMSO controls): test concentration or dose not given here.
Throughout, for Log2 (fold) (luciferase activity, log2 of the fold difference relative to DMSO controls): test concentration or dose not given here.
Throughout, for Log2 (fold) of luciferase activity relative to DMSO controls: test concentration or dose not given here.

Row | SMILES | Log2 (fold) (luciferase activity, log2 of the fold difference relative to DMSO controls) | Fold (luciferase activity, fold difference relative to DMSO controls) | Log2 (fold) of luciferase activity relative to DMSO controls | Fold (luciferase activity relative to DMSO controls) [fold] | Fold (Table 3 summary of hits, Screen ICCB, luciferase relative to DMSO, fed three consecutive days in vials) [fold]
1 | CCCCC/C=C\C/C=C\C/C=C\C/C=C\CCCC(=O)OC(CO)COCCCCCCCCCCCCCCCC (stereo not shown) [1-HEXADECYL-2-ARACHIDONOYL-GLYCEROL] | −0.379 | 0.769 | – | – | –
2 | CCCCCCCCCCCCCCCCOCC(COP(=O)([O-])OCC[N+](C)(C)C)OC (stereo not shown) [1-HEXADECYL-2-METHYLGLYCERO-3 PC] | – | – | 0.060 | 1.042 | –
3 | CCCCCCCCCCCCCCCCOCC(CO)OC(C)=O (stereo not shown) [1-HEXADECYL-2-O-ACETYL-GLYCEROL] | – | – | 0.518 | 1.432 | –
4 | CCCCCCCCCCCCCCCCOCC(CO)OC (stereo not shown) [1-HEXADECYL-2-O-METHYL-GLYCEROL] | −0.219 | 0.859 | – | – | –
5 | CCCCCCCCCCCCCCCCCCOCC(COP(=O)([O-])OCC[N+](C)(C)C)OC (stereo not shown) [1-OCTADECYL-2-METHYLGLYCERO-3 PC] | −0.538 | 0.689 | – | – | –
6 | CCCCCCCC/C=C\CCCCCCCC(=O)OCC(CO)OC(C)=O (stereo not shown) [1-OLEOYL-2-ACETYL-GLYCEROL] | −0.727 and −0.716 | 0.604 and 0.609 | – | – | –
7 | CCCCC/C=C\C/C=C\C/C=C\C/C=C\CCCC(=O)O[C@@H](CO)COC(=O)CCCCCCCCCCCCCCCCC [1-STEAROYL-2-ARACHIDONOYL-GLYCEROL] | −0.532 | 0.692 | – | – | –
8 | CCCCC/C=C\C/C=C\CCCCCCCC(=O)OC(CO)COC(=O)CCCCCCCCCCCCCCCCC (stereo not shown) [1-STEAROYL-2-LINOLEOYL-GLYCEROL] | −0.456 | 0.729 | – | – | –
9 | CC(C)(C)c1cc(O)c(C(C)(C)C)cc1O [2,5-ditertbutylhydroquinone] | −0.293 | 0.816 | – | – | –
10 | CCCCC/C=C\C/C=C\C/C=C\C/C=C\CCCC(=O)OC(CO)CO [2-ARACHIDONOYLGLYCEROL] | – | – | 0.119 | 1.086 | –
11 | CCCCCCCCCCCCCCC(F)C(=O)O (stereo not shown) [2-FLUOROPALMITIC ACID] | – | – | 0.051 | 1.036 | –
12 | CCCCCCCCCCCCC(O)C(=O)O (stereo not shown) [2-HYDROXYMYRISTIC ACID] | – | – | 0.087 | 1.062 | –
13 | CCCC[C@H]1C(=O)O[C@H](C)[C@H](NC(=O)c2cccc(NC=O)c2OC)C(=O)O[C@@H](C)[C@@H]1OC(=O)CC(C)C [2-methoxyantimycin A3] | −0.873 | 0.546 | – | – | –
14 | O=c1oc(Cl)c(Cl)c2ccccc12 [3,4-dichloroisocoumarin] | −0.772 | 0.586 | – | – | –
15 | CC1=C(/C=C/C(C)=C/C=C/C(C)=C/C(=O)Nc2ccc(O)cc2)C(C)(C)CCC1 [4-HYDROXYPHENYLRETINAMIDE] | −0.244 | 0.845 | – | – | –
16 | CCCCCCCCCCOCCC(=O)O [4-OXATETRADECANOIC ACID] | – | – | 0.004 | 1.003 | –
17 | CCCCC/C=C\C/C=C\C/C=C\C=C\[C@@H](O)CCCC(=O)O [5(S)-HETE] | −0.343 | 0.788 | – | – | –
18 | CCCCC/C=C\C/C=C\C/C=C\C=C\[C@H](CCCC(=O)O)OO [5(S)-HPETE] | −0.524 | 0.696 | – | – | –
19 | CCCCCC=CCC=CCC=CCC1OC1CCCC(=O)O (stereo not shown) [5,6-EPOXYEICOSATRIENOIC ACID] | – | – | −0.164 | 0.892 | –
20 | CCCCCCCCC#CCC#CCC#CCCCC(=O)O [5,8,11-EICOSATRIYNOIC ACID] | – | – | 0.094 | 1.067 | –
21 | CCCCCC(O)CCCC(=O)O (stereo not shown) [5-HYDROXYDECANOATE] | −0.357 | 0.781 | – | – | –
22 | CCCCCC=CCC=CCC=CC=CC(=O)CCCC(=O)O [5-KETOEICOSATETRAENOIC ACID] | −0.316 | 0.803 | – | – | –
23 | CCNC(=O)[C@H]1O[C@@H](n2cnc3c(N)ncnc32)[C@H](O)[C@@H]1O [5′-N-Ethylcarboxamidoadenosine (NECA)] | – | – | −0.024 | 0.983 | –

Row | SMILES | Log2 (fold) (luciferase activity, log2 of the fold difference relative to DMSO controls) | Fold (luciferase activity, fold difference relative to DMSO controls) | Log2 (fold) of luciferase activity relative to DMSO controls | Fold (luciferase activity relative to DMSO controls) [fold] | Fold (Table 3 summary of hits, Screen ICCB, luciferase relative to DMSO, fed three consecutive days in vials) [fold]
24 | Br.NC1CCc2cc(O)c(O)cc2C1 (stereo not shown) [6,7-ADTN HBr] | −0.383 | 0.767 | – | – | –
25 | O=Cc1c2[nH]c3ccccc3c2cc2[nH]c3ccccc3c12 [6-FORMYLINDOLO [3,2-B] CARBAZOLE] | −0.273 | 0.828 | – | – | –
26 | CCCCC[C@H](O)/C=C/[C@@H]1[C@@H](CC(=O)CCCCC(=O)O)[C@@H](O)C[C@H]1O [6-KETO-PROSTAGLANDIN F1a] | −0.435 | 0.740 | – | – | –
27 | CCCCCCCCCCC/C=C\C(C)(C)/C=C\CCCC(=O)O [7,7-DIMETHYLEICOSADIENOIC ACID] | – | – | 0.021 | 1.014 | –
28 | CCCCC/C=C\C/C=C\CC1OC1C/C=C\CCCC(=O)O (stereo not shown) [8,9-EPOXYEICOSATRIENOIC ACID] | −0.625 | 0.649 | – | – | –
29 | CCCCC[C@H](O)/C=C/[C@@H]1[C@H](C/C=C\CCCC(=O)O)[C@@H](O)C[C@H]1O [8-EPI-PROSTAGLANDIN F2a] | −0.657 | 0.634 | – | – | –
30 | COCc1nc2c([nH]1)c(=O)n(C)c(=O)n2CC(C)C [8-methoxymethyl-IBMX] | – | – | 0.006 | 1.004 | –
31 | CCCCC/C=C\C=C\[C@@H](O)CCCCCCCC(=O)O [9(S)-HODE] | −0.398 | 0.759 | – | – | –
32 | CCCCC/C=C\C=C\[C@H](CCCCCCCC(=O)O)OO [9(S)-HPODE] | −0.294 | 0.816 | – | – | –
33 | CCCCCCCC/C=C\CCCCCCCC(N)=O [9,10-OCTADECENOAMIDE] | −0.454 | 0.730 | – | – | –
34 | CC1=C(/C=C/C(C)=C\C=C\C(C)=C\C(=O)O)C(C)(C)CCC1 [9-CIS RETINOIC ACID] | −0.578 | 0.670 | – | – | –
35 | CCCCC[C@H](O)/C=C/[C@@H]1[C@@H](C/C=C\CCCC(=O)O)[C@@H](O)C[C@@H]1O [9a,11b-PROSTAGLANDIN F2] | −0.294 | 0.815 | – | – | –
36 | CCCCC[C@H](O)/C=C/[C@@H]1[C@@H](C/C=C\CCCC(=O)O)[C@H](O)C[C@H]1O [9b,11a-PROSTAGLANDIN F2] | – | – | 0.062 | 1.044 | –
37 | CC[C@@]1(O)C(=O)OCc2c1cc1n(c2=O)Cc2cc3cc(O)ccc3nc2-1 [10-hydroxycamptothecin, reference compound] | −0.930 | 0.525 | – | – | 0.525
38 | CCCCC/C=C\CC1OC1C/C=C\C/C=C\CCCC(=O)O (stereo not shown) [11,12-EPOXYEICOSATRIENOIC ACID] | – | – | −0.052 | 0.965 | –
39 | CCCCC/C=C\C[C@@H](O)/C=C/C=C\C/C=C\CCCC(=O)O [12(R)-HETE] | −0.219 | 0.859 | – | – | –
40 | CCCCC/C=C\C[C@H](O)/C=C/C=C\C/C=C\CCCC(=O)O [12(S)-HETE] | – | – | 0.055 | 1.039 | –
41 | CCCCC/C=C\C[C@@H](/C=C/C=C\C/C=C\CCCC(=O)O)OO [12(S)-HPETE] | −0.571 | 0.673 | – | – | –
42 | COCCCCCCCCCCCC(=O)O [12-METHOXYDODECANOIC ACID] | −0.320 | 0.801 | – | – | –
43 | CCCCC[C@H](O)/C=C/C=C\CCCCCCCC(=O)O [13(S)-HODE] | – | – | −0.141 | 0.907 | –
44 | CCCCC[C@@H](/C=C/C=C\CCCCCCCC(=O)O)OO [13(S)-HPODE] | – | – | 0.309 | 1.239 | –
45 | CCCCC[C@H](O)CC[C@H]1[C@H](O)CC(=O)[C@@H]1CCCCCCC(=O)O [13,14-DIHYDRO-PGE1] | – | – | 0.587 | 1.502 | –
